Where a name gives a salt, the structure may show the parent alone. Read-outs that look alike come from different tables or passages of the source.
Tests used:
TNF-α Production In Rats = test: Inhibition of LPS-induced TNF-α production in rats, in vivo assay; parameters: species or system Female Sprague-Dawley rats; settings: dosed orally at 30 mg, LPS 50 µg/kg intraperitoneally after 30 min, serum TNF-α 1.5 h later by ELISA
Procedure: Female Sprague-Dawley rats weighing 110-140 grams (Charles River, Hollister, CA) were acclimated for one week. Groups containing 8 […] each were dosed orally either with the test compounds dissolved in an aqueous vehicle containing 0.9% sodium chloride, 0.5% sodium carboxymethyl-cellulose, 0.4% polysorbate 80, 0.9% benzyl alcohol (CMC vehicle) or only vehicle (control group). After 30 min., the […] were injected intraperitoneally with 50 µg/kg of LPS (Sigma, St. Louis, MO).

[1] = test system: TNF-α Production In THP1 Cells; test: Inhibition of LPS-induced TNF-α production in THP1 cells, in vitro assay; format: cell-based, human; settings: THP-1 cells, LPS 0.5 µg/ml, 2 h, TNF-α in supernatant by ELISA, read-out: IC50 (concentration corresponding to half-maximal reduction in 450 nm absorbance), TNF-α release
Procedure: The ability of the compounds of this invention to inhibit the TNF-α release was determined using a minor modification of the methods described in Blifeld, C. et al. Transplantation, Vol. 51(2), 498-503, (1991). THP-1 cells were suspended in culture medium [RPMI (Gibco-BRL, Gailthersburg, MD) containing 15% fetal bovine serum, 0.02 mM 2-mercaptoethanol], at a concentration of 2.5 x 10^6 cells/ml and then plated in 96 well plate (0.2 ml aliquots in each well). Test compounds were dissolved in DMSO and then diluted with the culture medium such that the final DMSO concentration was 5%. 20 μl aliquots of test solution or only medium with DMSO (control) were added to each well. The cells were incubated for 30 min., at 37 °C. LPS (Sigma, St. Louis, MO) was added to the wells at a final concentration of 0.5 μg/ml, and cells were incubated for an additional 2 h. At the end of the incubation period, culture supernatants were collected and the amount of TNF-α present was determined using an ELISA assay as described below. The amount of human TNF-α present was determined by a specific trapping ELISA assay using two anti-TNF-α antibodies (2TNF-H22 and 2TNF-[…]) described in Reimund, J. M., et al. GUT. Vol. 39(5), 684-689 (1996). Polystyrene 96-well plates were coated with 50 μl per well of antibody 2TNF-H22 in PBS (10 μg/ml) and incubated in a humidified chamber at 4 °C overnight. The plates were washed with PBS and then blocked with 5% nonfat-dry milk in PBS for 1 hour at room temperature and washed with 0.1% BSA (bovine serum albumin) in PBS. TNF standards were prepared from a stock solution of human recombinant TNF-α (R&D Systems, Minneapolis, MN). The concentration of the standards in the assay began at 10 ng/ml followed by 6 half log serial dilution's. […] Optical density of the sample and the reference were read at 450 nm and 650 nm, respectively. TNF-α levels were determined from a graph relating the optical density at 450 nm to the concentration used. The IC50 value was defined as the concentration of the test compound corresponding to half-maximal reduction in 450 nm absorbance. […]

Compound | % Inhibition (TNF-α content in the test group relative to the vehicle treated group) (TNF-α Production In Rats) [%] | IC50 ([1]; Homo sapiens) [nM] | also measured
Nc1c(C(=O)c2cccc(C#CCN3CCOCC3)c2)cnn1-c1ccc(F)cc1 [compound 3, 5-Amino-1-(4-fluorophenyl)-4-[3-{3-(morpholin-4-yl)prop-1-ynyl}benzoyl]pyrazole] | 96 | – | –
Nc1c(C(=O)c2cccc(CCCN3CCOCC3)c2)cnn1-c1ccc(F)cc1 [compound 6, 5-Amino-1-(4-fluorophenyl)-4-[3-(3-morpholin-4-ylpropyl)benzoyl]pyrazole hydrochloride] | – | 1040 | –
CNC(=O)COc1cccc(C(=O)c2cnn(-c3ccc(F)cc3)c2N)c1 [compound 34, 5-Amino-1-(4-fluorophenyl)-4-[3-(methylaminocarbonylmethyloxy)-benzoyl]pyrazole] | 75 | – | –
CN1CCN(C(=O)COc2cccc(C(=O)c3cnn(-c4ccc(F)cc4)c3N)c2)CC1 [compound 38] | – | – | IC50 [1]: 690 nM
Nc1c(C(=O)c2cccc(CCS(N)(=O)=O)c2)cnn1-c1ccc(F)cc1 [compound 50, 5-Amino-4-[3-(2-aminosulfonylethyl)benzoyl]-1-(4-fluorophenyl)pyrazole] | – | 510 | –

Reference: patent EP1075467B1, “PYRAZOLE DERIVATIVES AS P-38 MAP KINASE INHIBITORS” (F. Hoffmann-La Roche AG, priority 1998, dated 1999)
